Assay results: patent publication US12077503B2, “Substituted cyclic amides and their use as herbicides” (FMC CORPORATION, priority 2015, dated 2024)
Where two headings read alike, the source gives them in different places.

How the values were obtained:
Kochia (Kochia scoparia) = assay: Test A preemergence; assay type: in vivo; conditions: Bassia scoparia, pre-emergence, 240 h; for pest or weed control at 125 g/ha: 125 g ai/ha; for pest or weed control at 500 g/ha: 500 g ai/ha
Procedure, shortened: (§1)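 Preemergence directed soil spray on seeded pots, or postemergence application to plants 2–10 cm, one- to two-leaf. Solvent mixture non-phytotoxic, with surfactant. Scored ~10 d later, visually, 0–100 vs untreated.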

[1] = system: giant foxtail (Setaria faberii); assay: Test A preemergence; assay type: in vivo; conditions: Setaria faberi, pre-emergence, 240 h; for pest or weed control at 125 g/ha: 125 g ai/ha; for pest or weed control at 500 g/ha: 500 g ai/ha
Procedure, shortened: as §1

[2] = system: ragweed (common ragweed, Ambrosia elatior); assay: Test A preemergence; assay type: in vivo; conditions: Ambrosia artemisiifolia, pre-emergence, 240 h; for pest or weed control at 500 g/ha: 500 g ai/ha; for pest or weed control at 125 g/ha: 125 g ai/ha
Procedure, shortened: as §1

[3] = system: ryegrass, Italian (Italian ryegrass, Lolium multiflorum); assay: Test A preemergence; assay type: in vivo; conditions: Lolium multiflorum, pre-emergence, 240 h; for pest or weed control at 500 g/ha: 500 g ai/ha; for pest or weed control at 125 g/ha: 125 g ai/ha
Procedure, shortened: as §1

[4] = system: pigweed (Amaranthus retroflexus); assay: Test A preemergence; assay type: in vivo; conditions: Amaranthus retroflexus, pre-emergence, 240 h; for pest or weed control at 125 g/ha: 125 g ai/ha; for pest or weed control at 500 g/ha: 500 g ai/ha
[5] = preemergence, 0 to 100 scale where 0 is no effect and 100 is complete control, read-out: Kochia plant response rating
[6] = preemergence, visual injury rating about 10 d after treatment, 0 to 100 scale (0 no effect, 100 complete control), read-out: Kochia plant response rating
[7] = preemergence, 0 to 100 scale where 0 is no effect and 100 is complete control, read-out: Foxtail, Giant plant response rating
[8] = preemergence, visual injury rating about 10 d after treatment, 0 to 100 scale (0 no effect, 100 complete control), read-out: Foxtail, Giant plant response rating
[9] = preemergence, visual injury rating about 10 d after treatment, 0 to 100 scale (0 no effect, 100 complete control), read-out: Ragweed plant response rating
[10] = preemergence, visual injury rating about 10 d after treatment, 0 to 100 scale (0 no effect, 100 complete control), read-out: Ryegrass, Italian plant response rating
[11] = preemergence, 0 to 100 scale where 0 is no effect and 100 is complete control, read-out: Pigweed plant response rating
[12] = preemergence, visual injury rating about 10 d after treatment, 0 to 100 scale (0 no effect, 100 complete control), read-out: Pigweed plant response rating
[13] = preemergence, 0 to 100 scale where 0 is no effect and 100 is complete control, approx. 10 d, read-out: Kochia plant response rating
[14] = preemergence, 0 to 100 scale where 0 is no effect and 100 is complete control, approx. 10 d, read-out: Foxtail, Giant plant response rating
[15] = preemergence, 0 to 100 scale where 0 is no effect and 100 is complete control, approx. 10 d, read-out: Ragweed plant response rating
[16] = preemergence, 0 to 100 scale where 0 is no effect and 100 is complete control, read-out: Ragweed plant response rating
[17] = preemergence, 0 to 100 scale where 0 is no effect and 100 is complete control, approx. 10 d, read-out: Ryegrass, Italian plant response rating
[18] = preemergence, 0 to 100 scale where 0 is no effect and 100 is complete control, read-out: Ryegrass, Italian plant response rating
[19] = preemergence, 0 to 100 scale where 0 is no effect and 100 is complete control, approx. 10 d, read-out: Pigweed plant response rating

| SMILES | melting point [°C] | pest or weed control at 125 g/ha (Kochia (Kochia scoparia); [5]) [%] | pest or weed control at 500 g/ha (Kochia (Kochia scoparia); [6]) [%] | pest or weed control at 125 g/ha [1, 7] [%] | pest or weed control at 500 g/ha [1, 8] [%] | pest or weed control at 500 g/ha [2, 9] [%] | pest or weed control at 500 g/ha [3, 10] [%] | pest or weed control at 125 g/ha [4, 11] [%] | pest or weed control at 500 g/ha [4, 12] [%] | pest or weed control at 125 g/ha (Kochia (Kochia scoparia); [13]) [%] | pest or weed control at 500 g/ha (Kochia (Kochia scoparia); [5]) [%] | pest or weed control at 125 g/ha [1, 14] [%] | pest or weed control at 500 g/ha [1, 7] [%] | pest or weed control at 125 g/ha [2, 15] [%] | pest or weed control at 500 g/ha [2, 16] [%] | pest or weed control at 125 g/ha [3, 17] [%] | pest or weed control at 500 g/ha [3, 18] [%] | pest or weed control at 125 g/ha [4, 19] [%] | pest or weed control at 500 g/ha [4, 11] [%] | further results |
| --- | --- | --- | --- | --- | --- | --- | --- | --- | --- | --- | --- | --- | --- | --- | --- | --- | --- | --- | --- | --- |
| CN1C[C@H](c2ccc(C(F)(F)F)cc2)[C@@H](C(=O)Nc2ccc(F)cc2C(F)(F)F)C1=O [Compound 942] | 113 to 116 | 70 | 90 | 90 | 90 | 50 | 20 | 80 | 90 | – | – | – | – | – | – | – | – | – | – | – |
| O=C1NC[C@H](c2nccs2)[C@H]1C(=O)Nc1cccc(F)c1F [Compound 1182] | 139.5 to 153 | – | – | – | – | – | – | – | – | 0 | 0 | 0 | 0 | 0 | 0 | 0 | 0 | 0 | 0 | – |
| CN1CC(c2cccc(O)c2)C(C(=O)Nc2cccc(F)c2F)C1=O (centres unmarked) [Compound 1130] | 216 to 220 | – | – | – | – | – | – | – | – | 0 | 0 | 0 | 30 | 0 | 0 | 0 | 0 | 0 | 0 | – |
| CCc1cccc([C@H]2CCNC(=O)[C@@H]2C(=O)Nc2cccc(F)c2F)c1 [Compound 1058] | 128 to 132 | – | 30 | – | 100 | 0 | 40 | – | 0 | 0 | – | – | – | 0 | – | 0 | – | 0 | – | pest or weed control at 125 g/ha ([1]; Preemergence, visual injury rating after approximately 10 d, read-out: Foxtail, Giant plant response rating (0 to 100 scale, 0 is no effect, 100 is complete control)): 90% |
| Cc1cc(F)ccc1NC(=O)[C@H]1C(=O)N(C)C[C@@H]1c1ccc(C(F)(F)F)cc1 [Compound 936] | 119 to 122 | 60 | 90 | 90 | 90 | 50 | 70 | 20 | 80 | – | – | – | – | – | – | – | – | – | – | – |
| CN1C[C@H](c2ccc(C(F)(F)F)cc2)[C@@H](C(=O)Nc2ccc(F)cc2Br)C1=O [Compound 934] | 123 to 126 | 50 | 80 | 90 | 90 | 30 | 60 | 0 | 80 | – | – | – | – | – | – | – | – | – | – | – |
| Cc1cccc(NC(=O)[C@H]2C(=O)N(C)C[C@@H]2c2ccc(C(F)(F)F)cc2)c1C [Compound 941] | 166 to 169 | 0 | 0 | 90 | 90 | 30 | 0 | 0 | 0 | – | – | – | – | – | – | – | – | – | – | – |
| O=C1NC[C@H](c2ccc(F)c(OC(F)(F)C(F)F)c2)[C@H]1C(=O)Nc1ccc(F)cc1F (racemic) [Compound 1154] | 102 to 106 | – | – | – | – | – | – | – | – | 70 | 90 | 90 | 90 | 20 | 90 | 30 | 50 | 60 | 80 | – |
| Cc1cccc(NC(=O)[C@H]2C(=O)N(C)C[C@@H]2c2ccc(C(F)(F)F)cc2)c1F [Compound 939] | 178 to 181 | 30 | 60 | 90 | 90 | 50 | 20 | 0 | 0 | – | – | – | – | – | – | – | – | – | – | – |
| CN1C[C@H](c2ccc(C(F)(F)F)cc2)[C@@H](C(=O)Nc2ccccc2[S+](C)[O-])C1=O (some centres unmarked) [Compound 915] | 181 to 184 | 80 | – | 90 | – | – | – | 80 | – | – | – | – | – | – | – | – | – | – | – | pest or weed control at 500 g/ha (Kochia (Kochia scoparia); Preemergence, visual injury vs untreated controls after approximately 10 d, read-out: Kochia plant response rating (0 to 100 scale where 0 is no effect and 100 is complete control)): 90%; pest or weed control at 500 g/ha ([1]; Preemergence, visual injury vs untreated controls after approximately 10 d, read-out: Foxtail, Giant plant response rating (0 to 100 scale where 0 is no effect and 100 is complete control)): 100%; pest or weed control at 125 g/ha [2, 16]: 80%; pest or weed control at 500 g/ha ([2]; Preemergence, visual injury vs untreated controls after approximately 10 d, read-out: Ragweed plant response rating (0 to 100 scale where 0 is no effect and 100 is complete control)): 90%; pest or weed control at 125 g/ha [3, 18]: 40%; pest or weed control at 500 g/ha ([3]; Preemergence, visual injury vs untreated controls after approximately 10 d, read-out: Ryegrass, Italian plant response rating (0 to 100 scale where 0 is no effect and 100 is complete control)): 70%; pest or weed control at 500 g/ha ([4]; Preemergence, visual injury vs untreated controls after approximately 10 d, read-out: Pigweed plant response rating (0 to 100 scale where 0 is no effect and 100 is complete control)): 90% |
| O=C1NC[C@H](c2ccc(F)c(OC(F)(F)C(F)F)c2)[C@H]1C(=O)Nc1ccccc1F [Compound 1133] | 119 to 123 | – | – | – | – | – | – | – | – | 60 | 100 | 90 | 90 | 40 | 60 | 20 | 30 | 30 | 70 | – |
| CN1CC(c2cccc(/C=C/Cl)c2)C(C(=O)Nc2ccccc2F)C1=O (centres unmarked) [Compound 1129] | 97 to 101 | – | – | – | – | – | – | – | – | 0 | 50 | 90 | 90 | 0 | 0 | 20 | 50 | 0 | 0 | – |
